These results are taken from patent publication US11638712B2, “Bis(acetamidophenyl) guanidinophenylethylphosphonates for use in the prevention and/or treatment of PAR-related diseases” (Universiteit Antwerpen, priority 2016, dated 2023).

Where two headings read alike, the source gives them in different places.

One test addresses tryptase (Homo sapiens, UniProt Q15661). Kind of test: in vitro serine protease inhibition profile: tryptase. It counts as biochemical.
The target in a further test is T1, plasmin (Homo sapiens, UniProt P00747).
T1 construct: panel of serine proteases: uPA, tPA, thrombin, plasmin, FXIIa
Description: in vitro serine protease inhibition profile: plasmin. It counts as biochemical.

Another test deals with T2, matriptase (Homo sapiens, UniProt Q9Y5Y6).
T2 sequence (Q9Y5Y6 1-855): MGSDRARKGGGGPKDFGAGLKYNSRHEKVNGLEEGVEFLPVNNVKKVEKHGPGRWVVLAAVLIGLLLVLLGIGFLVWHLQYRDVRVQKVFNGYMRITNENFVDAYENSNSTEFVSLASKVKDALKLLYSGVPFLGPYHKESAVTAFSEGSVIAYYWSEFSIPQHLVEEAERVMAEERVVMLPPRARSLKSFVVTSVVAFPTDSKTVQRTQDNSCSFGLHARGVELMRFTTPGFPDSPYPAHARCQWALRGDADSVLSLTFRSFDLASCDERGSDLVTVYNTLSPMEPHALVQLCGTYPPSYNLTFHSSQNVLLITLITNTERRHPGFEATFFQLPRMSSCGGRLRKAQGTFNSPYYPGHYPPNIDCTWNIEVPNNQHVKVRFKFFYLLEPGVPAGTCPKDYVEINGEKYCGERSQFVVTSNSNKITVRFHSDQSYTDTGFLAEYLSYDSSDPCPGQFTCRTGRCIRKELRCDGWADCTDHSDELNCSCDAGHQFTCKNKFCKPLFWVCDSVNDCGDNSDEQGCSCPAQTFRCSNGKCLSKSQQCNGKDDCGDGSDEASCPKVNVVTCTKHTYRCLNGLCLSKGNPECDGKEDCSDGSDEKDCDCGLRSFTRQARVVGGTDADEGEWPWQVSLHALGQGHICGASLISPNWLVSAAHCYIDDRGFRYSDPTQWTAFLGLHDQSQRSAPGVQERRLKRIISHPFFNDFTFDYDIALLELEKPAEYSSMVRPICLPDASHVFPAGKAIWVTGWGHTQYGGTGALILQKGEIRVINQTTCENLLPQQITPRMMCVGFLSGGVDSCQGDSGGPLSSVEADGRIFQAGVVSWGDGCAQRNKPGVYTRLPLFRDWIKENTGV
Description: in vitro serine protease inhibition profile: matriptase. It counts as biochemical.

A further test concerns the target KLK4 (Homo sapiens, UniProt Q9Y5K2). Kind of test: in vitro serine protease inhibition profile: KLK4. It counts as biochemical.
The next test concerns the target KLK2 (Homo sapiens, UniProt P20151). Kind of test: in vitro serine protease inhibition profile: KLK2. It counts as biochemical.
The next test addresses T3, HNE (Homo sapiens, UniProt P08246).
T3 sequence (P08246 30-267): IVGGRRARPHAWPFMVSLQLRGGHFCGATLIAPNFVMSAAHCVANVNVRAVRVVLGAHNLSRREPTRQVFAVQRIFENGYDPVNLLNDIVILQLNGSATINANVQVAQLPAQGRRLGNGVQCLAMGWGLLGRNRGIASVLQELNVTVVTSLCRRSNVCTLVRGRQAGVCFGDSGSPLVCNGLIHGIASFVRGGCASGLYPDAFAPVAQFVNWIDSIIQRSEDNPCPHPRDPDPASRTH
Kind of test: in vitro serine protease inhibition profile: HNE. It counts as biochemical.

Another test concerns the target tPA (Homo sapiens, UniProt P00750). Description: in vitro serine protease inhibition profile: tPA. It counts as biochemical.
The target in the next test is T4, KLK8 (Homo sapiens, UniProt O60259).
T4 sequence (O60259 33-260): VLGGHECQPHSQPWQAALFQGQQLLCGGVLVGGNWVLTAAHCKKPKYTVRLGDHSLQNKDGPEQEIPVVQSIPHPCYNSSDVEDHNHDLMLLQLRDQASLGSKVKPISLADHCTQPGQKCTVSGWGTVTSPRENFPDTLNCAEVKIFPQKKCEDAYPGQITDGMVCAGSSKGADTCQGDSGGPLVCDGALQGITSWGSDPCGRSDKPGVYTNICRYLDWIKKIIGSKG
Description: in vitro serine protease inhibition profile: KLK8. It counts as biochemical.

A further test has as its target KLK1 (Homo sapiens, UniProt P06870). Kind of test: in vitro serine protease inhibition profile: KLK1. It counts as biochemical.
In another test the target is T5, FXIIa (Homo sapiens, UniProt P00748).
T5 construct: panel of serine proteases: uPA, tPA, thrombin, plasmin, FXIIa
Kind of test: in vitro serine protease inhibition profile: FXIIa. It counts as biochemical.

The next test deals with T6, cathepsinG (Homo sapiens, UniProt P08311).
T6 sequence (P08311 21-244): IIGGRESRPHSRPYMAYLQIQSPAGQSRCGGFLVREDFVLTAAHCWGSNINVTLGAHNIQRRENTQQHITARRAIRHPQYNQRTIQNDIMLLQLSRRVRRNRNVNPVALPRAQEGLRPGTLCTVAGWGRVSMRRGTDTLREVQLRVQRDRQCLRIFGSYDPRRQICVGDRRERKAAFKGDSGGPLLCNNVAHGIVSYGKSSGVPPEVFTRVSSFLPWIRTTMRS
Kind of test: in vitro serine protease inhibition profile: cathepsinG. It counts as biochemical.

The test system of the next test is post-colitis rats. Kind of test: post-colitis rat model for visceral pain, visceromotor response (VMR) to colorectal distension. Particulars: post-colitis rats, 10 mg/kg. The procedure:
Male Sprague-Dawley rats (200-225 g; Charles River, Italy) were used in all experiments. Rats were housed at a constant room temperature (22±2° C.) and humidity (60%). The animals had unlimited access to water and food and were kept on a 12 h:12 h day-night cycle. They were allowed to acclimatize for at least 1 week before the start of the experiments.
In this set-up, a mild colitis was induced in the post-colitis group on day 0, using a TNBS-enema. The control group received an intrarectal administration with 0.9% NaCl. The presence of colitis was verified by a colonoscopy on day 3. From day 10 onwards, a colonoscopy was performed every 4 days to follow-up the healing of the colonic mucosa. When the colonic mucosa was completely healed, further experiments were performed 3 days later. […] After the VMR measurement, the animals were sacrificed.
TNBS-colitis was induced at day 0 using a TNBS-enema (4 mg TNBS, 50% ethanol). […] Control animals received 0.25 ml 0.9% NaCl intrarectally. The animals were kept in a tail-up position during 1 min and were then allowed to recover in a Trendelenburg position.
Electromyographic (EMG) electrodes were implanted into the external abdominal muscle and 3 days later, the VMR experiment was performed in conscious rats. A lubricated balloon (length 5 cm) was introduced into the colorectum of the animal and connected to a barostat (Distender Series II Barostat, G&J Electronics, Canada). The EMG electrodes were attached to a data-acquisition system and a phasic distension protocol (10-20-30-40-60 mmHg, 20 s, 4 min interval) was sent through the barostat. […] The VMR was quantified using the area under the curve (AUC) of the EMG signal during the distension (20 s) corrected for the EMG signal before the distension (20 s).
22.0. The results of the VMR experiments analyzed using a Generalized Estimating Equations (GEE) test with Least Significant Difference (LSD) post-hoc test. A p-value<0.05 was considered as being statistically significant. The graphs were made with GraphPad Prism 6.0.
Visceral sensitivity was assessed using the visceromotor responses (VMRs) to a colorectal distension, shown in the graphs below as area under the curve (AUC; y-axis; μV.20 s-1) for each distension pressure (x-axis; mmHg). Serine proteases seem to play an important role in the pathogenesis of visceral pain.

The target in the next test is T7, thrombin (Homo sapiens, UniProt P00734).
T7 construct: panel of serine proteases: uPA, tPA, thrombin, plasmin, FXIIa
Kind of test: in vitro serine protease inhibition profile: thrombin. It counts as biochemical. Particulars: read-out: IC50 thrombin.

Another test addresses uPA (Homo sapiens, UniProt P00749). Description: in vitro serine protease inhibition profile: uPA. It counts as biochemical. The conditions noted are these: read-out: IC50 uPA.

tryptase, sequence (Q15661 31-275): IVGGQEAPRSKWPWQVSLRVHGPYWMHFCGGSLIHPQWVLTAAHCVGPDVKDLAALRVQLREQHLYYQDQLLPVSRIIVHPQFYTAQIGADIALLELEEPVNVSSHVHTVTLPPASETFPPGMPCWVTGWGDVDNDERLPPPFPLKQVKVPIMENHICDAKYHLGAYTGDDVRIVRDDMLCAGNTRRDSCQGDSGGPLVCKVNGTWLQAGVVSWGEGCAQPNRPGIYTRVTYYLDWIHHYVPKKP
tPA, sequence (P00750 36-562, species assumed): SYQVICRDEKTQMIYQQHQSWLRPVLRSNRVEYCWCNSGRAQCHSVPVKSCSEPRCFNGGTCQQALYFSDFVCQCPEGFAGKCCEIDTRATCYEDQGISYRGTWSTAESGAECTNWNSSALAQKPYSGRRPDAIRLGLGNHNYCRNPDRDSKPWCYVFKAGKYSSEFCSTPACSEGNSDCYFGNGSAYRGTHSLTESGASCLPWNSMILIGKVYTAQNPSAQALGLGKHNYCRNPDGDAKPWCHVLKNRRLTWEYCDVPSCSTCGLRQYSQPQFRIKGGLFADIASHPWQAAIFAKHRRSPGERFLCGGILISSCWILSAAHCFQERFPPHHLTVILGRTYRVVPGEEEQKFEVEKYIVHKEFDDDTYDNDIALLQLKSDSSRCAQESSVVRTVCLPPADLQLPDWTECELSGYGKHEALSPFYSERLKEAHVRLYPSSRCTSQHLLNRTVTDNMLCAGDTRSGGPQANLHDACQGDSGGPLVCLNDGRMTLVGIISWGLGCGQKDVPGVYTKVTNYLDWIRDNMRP
KLK2, sequence (P20151 25-261, species assumed): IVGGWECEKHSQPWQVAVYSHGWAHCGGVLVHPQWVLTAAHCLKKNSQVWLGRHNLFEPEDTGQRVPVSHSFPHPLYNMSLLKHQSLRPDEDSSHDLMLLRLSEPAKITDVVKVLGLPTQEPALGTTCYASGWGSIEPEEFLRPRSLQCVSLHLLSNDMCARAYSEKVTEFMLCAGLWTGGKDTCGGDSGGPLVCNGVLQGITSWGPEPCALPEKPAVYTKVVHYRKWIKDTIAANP
KLK1, sequence (P06870 25-262, species assumed): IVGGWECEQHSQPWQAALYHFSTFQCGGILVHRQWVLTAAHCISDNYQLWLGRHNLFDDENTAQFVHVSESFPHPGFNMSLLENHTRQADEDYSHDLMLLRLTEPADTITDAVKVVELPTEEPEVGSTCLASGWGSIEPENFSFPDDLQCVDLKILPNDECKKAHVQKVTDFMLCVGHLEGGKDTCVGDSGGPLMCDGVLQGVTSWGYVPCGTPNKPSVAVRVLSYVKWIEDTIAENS
T1 sequence (P00747 581-810 limits assumed, species assumed): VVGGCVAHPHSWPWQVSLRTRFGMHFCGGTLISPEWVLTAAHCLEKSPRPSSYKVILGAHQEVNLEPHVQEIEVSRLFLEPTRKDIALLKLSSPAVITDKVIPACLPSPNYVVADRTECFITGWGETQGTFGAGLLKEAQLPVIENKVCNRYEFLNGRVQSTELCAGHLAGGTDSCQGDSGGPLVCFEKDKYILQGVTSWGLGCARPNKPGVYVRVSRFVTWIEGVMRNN
T1 sequence (P00747 97-580 partner limits assumed, species assumed): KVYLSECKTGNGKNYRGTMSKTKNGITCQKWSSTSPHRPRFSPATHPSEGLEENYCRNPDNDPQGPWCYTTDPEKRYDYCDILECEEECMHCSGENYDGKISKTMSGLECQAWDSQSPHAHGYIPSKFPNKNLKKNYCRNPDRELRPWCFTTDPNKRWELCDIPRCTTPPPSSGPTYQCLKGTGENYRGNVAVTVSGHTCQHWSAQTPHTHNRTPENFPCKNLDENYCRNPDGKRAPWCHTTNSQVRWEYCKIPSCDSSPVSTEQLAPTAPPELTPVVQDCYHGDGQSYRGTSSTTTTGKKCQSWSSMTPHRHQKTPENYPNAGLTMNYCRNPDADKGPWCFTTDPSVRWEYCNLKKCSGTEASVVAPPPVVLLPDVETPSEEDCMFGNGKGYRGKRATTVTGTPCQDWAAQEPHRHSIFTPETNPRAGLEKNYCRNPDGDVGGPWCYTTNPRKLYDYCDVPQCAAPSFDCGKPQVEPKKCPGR
KLK4, sequence (Q9Y5K2 31-254, species assumed): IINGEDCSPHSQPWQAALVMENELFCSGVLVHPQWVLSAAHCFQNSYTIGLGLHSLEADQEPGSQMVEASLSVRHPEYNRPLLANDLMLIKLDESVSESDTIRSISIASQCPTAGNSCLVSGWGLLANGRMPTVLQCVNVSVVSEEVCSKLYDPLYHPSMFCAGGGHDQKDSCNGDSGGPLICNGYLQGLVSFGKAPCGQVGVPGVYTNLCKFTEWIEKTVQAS
T5 sequence (P00748 373-615 limits assumed, other chains not shown): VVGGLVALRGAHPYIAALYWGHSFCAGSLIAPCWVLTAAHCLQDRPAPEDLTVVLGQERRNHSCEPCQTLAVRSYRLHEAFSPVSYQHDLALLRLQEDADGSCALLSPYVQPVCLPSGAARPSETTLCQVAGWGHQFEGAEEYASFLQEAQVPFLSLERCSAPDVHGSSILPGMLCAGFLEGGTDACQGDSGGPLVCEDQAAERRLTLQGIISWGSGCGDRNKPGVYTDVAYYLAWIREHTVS

Regarding `N=C(N)Nc1ccc(CC(NC(=O)OCc2ccccc2)P(=O)(Oc2ccccc2)Oc2ccccc2)cc1` (centres unmarked) [Compound 3], the 50% inhibitory concentration (IC50) on tryptase was 83 nM; at plasmin, over 2500 nM; at matriptase, 150 nM; on KLK4 (read-out: IC50 KLK4), 12 nM; against KLK2 it was 90 nM; at HNE it was over 2500 nM. For the same compound, the IC50 on tPA was over 2500 nM; at KLK8, 42 nM; against KLK1, over 2500 nM.
Take `COC(=O)NC(Cc1ccc(NC(=N)N)cc1)P(=O)(Oc1ccc(NC(C)=O)cc1)Oc1ccc(NC(C)=O)cc1` (centres unmarked) [Compound 2]: the half-inhibitory concentration (IC50) was 3140 nM against FXIIa; 3 nM against tryptase; over 2500 nM at plasmin; 8 nM at matriptase; 26 nM at KLK4; 315 nM against KLK2. The IC50 against HNE was over 2500 nM; against tPA, over 2500 nM; on KLK8 it was 13 nM; on cathepsinG it was 61 nM; against KLK1 it was over 2500 nM.
Turning to `N=C(N)c1ccc2cc(OC(=O)c3ccc(N=C(N)N)cc3)ccc2c1` [Nafamostat], the “effect on VMRs (visceral pain)” value with post-colitis rats is reported as “no significant effect on visceral pain could be detected”. For the same compound, the IC50 is about 500000 nM on thrombin; under 1 nM on tryptase (read-out: IC50 tryptase); under 1 nM on uPA; about 100 nM on KLK2 (read-out: IC50 KLK2); over 2500 nM on HNE (read-out: IC50 HNE); over 2500 nM on tPA (read-out: IC50 tPA). The IC50 on KLK8 (read-out: IC50 KLK8) was about 15 nM; at KLK1 (read-out: IC50 KLK1), about 1000 nM.
